Counter-ions that a name gives are not always drawn.
Legend:
[1] = biological target: T1, DNA topoisomerase 1 (Homo sapiens) (UniProt P11387); experiment: Inhibition of human topoisomerase-1 assessed as inhibition of relaxation of supercoiled pBR322 plasmid DNA at 20 uM measured after 1 hr by ethidium bromide staining based agarose gel electrophoresis relative to control
T1 sequence (whole entry): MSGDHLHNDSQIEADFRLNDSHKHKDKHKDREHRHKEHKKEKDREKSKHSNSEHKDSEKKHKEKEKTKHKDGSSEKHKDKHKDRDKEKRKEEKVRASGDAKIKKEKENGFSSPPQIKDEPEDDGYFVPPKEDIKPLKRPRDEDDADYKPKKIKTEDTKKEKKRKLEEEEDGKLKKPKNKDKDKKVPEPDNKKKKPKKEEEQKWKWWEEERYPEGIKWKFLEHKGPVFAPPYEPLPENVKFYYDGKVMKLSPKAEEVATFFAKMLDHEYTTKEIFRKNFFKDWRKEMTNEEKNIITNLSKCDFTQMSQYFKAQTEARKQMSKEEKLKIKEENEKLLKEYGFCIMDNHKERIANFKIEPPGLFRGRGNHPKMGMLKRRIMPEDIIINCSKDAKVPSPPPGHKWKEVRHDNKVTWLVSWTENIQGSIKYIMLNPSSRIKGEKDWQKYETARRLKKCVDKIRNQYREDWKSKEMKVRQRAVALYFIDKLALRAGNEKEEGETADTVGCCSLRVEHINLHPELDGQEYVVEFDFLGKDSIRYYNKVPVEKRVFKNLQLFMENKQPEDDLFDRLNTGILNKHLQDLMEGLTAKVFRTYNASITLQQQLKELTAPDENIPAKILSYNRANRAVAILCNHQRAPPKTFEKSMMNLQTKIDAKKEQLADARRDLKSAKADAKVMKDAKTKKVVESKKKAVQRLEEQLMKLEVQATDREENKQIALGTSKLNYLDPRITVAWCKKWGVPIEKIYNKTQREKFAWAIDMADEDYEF

[2] = biological target: DNA topoisomerase 2-alpha (Homo sapiens) (UniProt P11388); experiment: Inhibition of human topoisomerase-2 alpha assessed as inhibition of relaxation of supercoiled pBR322 plasmid DNA at 100 uM measured after 1 hr by ethidium bromide staining based agarose gel electrophoresis relative to control
[3] = biological target: T1, DNA topoisomerase 1 (Homo sapiens); experiment: Inhibition of human topoisomerase-1 assessed as inhibition of relaxation of supercoiled pBR322 plasmid DNA at 100 uM measured after 1 hr by ethidium bromide staining based agarose gel electrophoresis relative to control
[4] = Antiproliferative activity against human MCF7 cells measured after 72 hrs by CCK8 assay; format: functional, cell-based; details: MCF7, 72 h
[5] = Antiproliferative activity against human DU145 cells measured after 72 hrs by CCK8 assay; format: functional, cell-based; details: DU-145, 72 h
[6] = Antiproliferative activity against human HCT15 cells measured after 72 hrs by CCK8 assay; format: functional, cell-based; details: HCT-15, 72 h
[7] = Antiproliferative activity against human T47D cells measured after 72 hrs by CCK8 assay; format: functional, cell-based
[8] = biological target: DNA topoisomerase 2-alpha (Homo sapiens) (UniProt P11388); experiment: Inhibition of human topoisomerase-2 alpha assessed as inhibition of relaxation of supercoiled pBR322 plasmid DNA at 20 uM measured after 1 hr by ethidium bromide staining based agarose gel electrophoresis relative to control

DNA topoisomerase 2-alpha (Homo sapiens), sequence (P11388 whole entry): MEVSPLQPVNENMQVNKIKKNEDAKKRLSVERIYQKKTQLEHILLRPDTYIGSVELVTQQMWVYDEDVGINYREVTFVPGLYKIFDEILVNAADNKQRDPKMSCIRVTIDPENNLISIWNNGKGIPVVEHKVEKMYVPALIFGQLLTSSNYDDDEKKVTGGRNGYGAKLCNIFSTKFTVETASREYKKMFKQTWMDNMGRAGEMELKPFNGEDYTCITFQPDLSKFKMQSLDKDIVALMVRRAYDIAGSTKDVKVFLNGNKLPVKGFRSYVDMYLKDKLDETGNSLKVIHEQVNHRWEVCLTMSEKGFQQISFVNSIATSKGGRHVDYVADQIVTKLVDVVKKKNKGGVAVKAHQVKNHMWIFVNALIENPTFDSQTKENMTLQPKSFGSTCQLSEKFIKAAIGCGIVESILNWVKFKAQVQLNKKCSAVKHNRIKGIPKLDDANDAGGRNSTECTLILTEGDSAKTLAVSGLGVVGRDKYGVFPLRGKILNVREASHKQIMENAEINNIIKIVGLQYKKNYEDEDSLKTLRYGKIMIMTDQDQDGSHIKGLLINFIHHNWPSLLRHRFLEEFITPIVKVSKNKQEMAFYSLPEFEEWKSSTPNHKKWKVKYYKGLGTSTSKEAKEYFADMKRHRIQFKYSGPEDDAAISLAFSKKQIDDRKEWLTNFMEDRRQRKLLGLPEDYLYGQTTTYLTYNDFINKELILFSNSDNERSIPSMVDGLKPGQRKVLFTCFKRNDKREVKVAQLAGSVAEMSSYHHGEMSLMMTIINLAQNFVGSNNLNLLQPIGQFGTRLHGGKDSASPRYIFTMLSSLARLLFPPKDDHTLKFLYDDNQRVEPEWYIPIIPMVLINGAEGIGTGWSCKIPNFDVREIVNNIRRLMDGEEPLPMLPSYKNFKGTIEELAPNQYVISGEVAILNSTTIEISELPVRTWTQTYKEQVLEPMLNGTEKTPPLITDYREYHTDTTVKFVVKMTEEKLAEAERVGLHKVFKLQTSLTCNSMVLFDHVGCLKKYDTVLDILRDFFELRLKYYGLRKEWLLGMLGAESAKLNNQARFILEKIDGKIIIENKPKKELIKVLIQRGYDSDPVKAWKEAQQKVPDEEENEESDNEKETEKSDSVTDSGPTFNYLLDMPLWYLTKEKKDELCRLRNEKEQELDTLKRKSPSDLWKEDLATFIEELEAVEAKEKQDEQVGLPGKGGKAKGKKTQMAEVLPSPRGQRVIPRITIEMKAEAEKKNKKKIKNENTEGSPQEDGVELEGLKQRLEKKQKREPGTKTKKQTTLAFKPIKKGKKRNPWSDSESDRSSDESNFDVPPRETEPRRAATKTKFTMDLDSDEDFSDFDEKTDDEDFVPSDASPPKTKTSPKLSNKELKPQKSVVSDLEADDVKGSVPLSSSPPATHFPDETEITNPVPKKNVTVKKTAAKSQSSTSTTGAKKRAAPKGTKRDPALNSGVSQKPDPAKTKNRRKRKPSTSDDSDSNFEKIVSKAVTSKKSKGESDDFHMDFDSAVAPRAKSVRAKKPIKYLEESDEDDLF

Row | inhibition [1] | inhibition [2] | inhibition [3] | inhibition [8] | Compound | IC50 [4] | IC50 [5] | IC50 [6] | IC50 [7]
1 | 3.5% | 6% | 54.6% | – | CCOc1ccc2c(c1)Oc1cc(OC(=O)c3ccccc3[N+](=O)[O-])ccc1C21c2ccccc2C(=O)N1/N=C/c1ccc(OC)cc1 (configuration not stated) | – | – | – | –
2 | – | 7% | 0% | – | CCOc1ccc2c(c1)Oc1cc(OC(=O)c3ccccc3Cl)ccc1C21c2ccccc2C(=O)N1/N=C/c1cccc(OC(=O)c2ccccc2Cl)c1 (configuration not stated) | – | – | – | –
3 | – | 25.7% | 0% | – | CCOc1ccc2c(c1)Oc1cc(OC(=O)c3ccccc3[N+](=O)[O-])ccc1C21c2ccccc2C(=O)N1/N=C/c1ccccc1OC(=O)c1ccccc1[N+](=O)[O-] (configuration not stated) | > 50 µM | > 50 µM | > 50 µM | 5.45 µM
4 | 0% | 5.4% | 39.8% | – | CCOc1ccc2c(c1)Oc1cc(OC(=O)c3ccccc3Cl)ccc1C21c2ccccc2C(=O)N1/N=C/c1ccccc1[N+](=O)[O-] (configuration not stated) | > 50 µM | > 50 µM | 47 µM | 7.75 µM
5 | 24.6% | 13.1% | 30.1% | – | CCOc1ccc2c(c1)Oc1cc(OC(=O)c3ccccc3Cl)ccc1C21c2ccccc2C(=O)N1/N=C/c1ccc(OC(=O)c2ccccc2Cl)cc1 (configuration not stated) | – | – | – | –
6 | – | 5.6% | 3.3% | – | CCOc1ccc2c(c1)Oc1cc(OC(=O)c3ccccc3Cl)ccc1C21c2ccccc2C(=O)N1/N=C/c1ccc(OC)cc1 (configuration not stated) | – | – | – | –
7 | 6.8% | 8.1% | 74% | – | CCOc1ccc2c(c1)Oc1cc(OC(=O)c3ccccc3OC)ccc1C21c2ccccc2C(=O)N1/N=C/c1ccccc1OC (configuration not stated) | > 50 µM | > 50 µM | 1.92 µM | 21.4 µM
8 | – | 2.8% | 0% | – | CCOc1ccc2c(c1)Oc1cc(OC(=O)c3ccccc3OC)ccc1C21c2ccccc2C(=O)N1/N=C/c1cccc(OC(=O)c2ccccc2OC)c1 (configuration not stated) | – | – | – | –
9 | – | 6.7% | 0% | – | CCOc1ccc2c(c1)Oc1cc(OC(=O)c3ccccc3)ccc1C21c2ccccc2C(=O)N1/N=C/c1cccc(OC(=O)c2ccccc2)c1 (configuration not stated) | > 50 µM | > 50 µM | 28.9 µM | > 50 µM
10 | 55.9% | 21.5% | 73.2% | – | CCOc1ccc2c(c1)Oc1cc(OC(=O)c3ccccc3)ccc1C21c2ccccc2C(=O)N1/N=C/c1ccccc1OC(=O)c1ccccc1 (configuration not stated) | > 50 µM | > 50 µM | 8.29 µM | > 50 µM
11 | 10% | 25% | 69.2% | – | CCOc1ccc2c(c1)Oc1cc(OC(=O)c3ccccc3OC)ccc1C21c2ccccc2C(=O)N1/N=C/c1ccc(Cl)cc1Cl (configuration not stated) | – | – | – | –
12 | – | 8.5% | 14.4% | – | CCOc1ccc2c(c1)Oc1cc(OC(=O)c3ccccc3Cl)ccc1C21c2ccccc2C(=O)N1/N=C/c1ccc(Cl)cc1Cl (configuration not stated) | – | – | – | –
13 | – | 6.2% | 19% | – | CCOc1ccc2c(c1)Oc1cc(OC(=O)c3ccccc3OC)ccc1C21c2ccccc2C(=O)N1/N=C/c1ccccc1[N+](=O)[O-] (configuration not stated) | – | – | – | –
14 | 15.8% | 3.9% | 87.2% | – | CCOc1ccc2c(c1)Oc1cc(OC(=O)c3ccccc3[N+](=O)[O-])ccc1C21c2ccccc2C(=O)N1/N=C/c1ccc(OC)c(OC(=O)c2ccccc2[N+](=O)[O-])c1 (configuration not stated) | – | – | – | –
15 | – | 6.6% | 0% | – | CCOc1ccc2c(c1)Oc1cc(OC(=O)c3ccccc3[N+](=O)[O-])ccc1C21c2ccccc2C(=O)N1/N=C/c1cccc(OC(=O)c2ccccc2[N+](=O)[O-])c1 (configuration not stated) | – | – | – | –
16 | 48.1% | 6.9% | 81.3% | – | CCOc1ccc2c(c1)Oc1cc(OC(=O)c3ccccc3)ccc1C21c2ccccc2C(=O)N1/N=C/c1ccccc1OC (configuration not stated) | – | – | – | –
17 | – | 7.5% | 16.9% | – | CCOc1ccc2c(c1)Oc1cc(OC(=O)c3ccccc3[N+](=O)[O-])ccc1C21c2ccccc2C(=O)N1/N=C/c1ccccc1[N+](=O)[O-] (configuration not stated) | – | – | – | –
18 | 17.3% | 4.8% | 35.6% | – | CCOc1ccc2c(c1)Oc1cc(OC(=O)c3ccccc3OC)ccc1C21c2ccccc2C(=O)N1/N=C/c1ccc(OC)cc1 (configuration not stated) | – | – | – | –
19 | 0% | 6.1% | 55.4% | – | CCOc1ccc2c(c1)Oc1cc(OC(=O)c3ccccc3)ccc1C21c2ccccc2C(=O)N1/N=C/c1ccccc1[N+](=O)[O-] (configuration not stated) | – | – | – | –

Row | inhibition [1] | inhibition [2] | inhibition [3] | inhibition [8] | Compound | IC50 [4] | IC50 [5] | IC50 [6] | IC50 [7]
20 | – | – | – | – | CC[C@@]1(O)C(=O)OCc2c1cc1n(c2=O)Cc2cc3ccccc3nc2-1 [CAMPTOTHECIN] | 4.54 µM | 0.38 µM | 0.35 µM | 0.59 µM
21 | – | 10.3% | 0% | – | CCOc1ccc2c(c1)Oc1cc(OC(=O)c3ccccc3OC)ccc1C21c2ccccc2C(=O)N1/N=C/c1ccccc1OC(=O)c1ccccc1OC (configuration not stated) | > 50 µM | > 50 µM | 1.56 µM | 6.22 µM
22 | 72% | 2.7% | 89.4% | – | CCOc1ccc2c(c1)Oc1cc(OC(=O)c3ccccc3)ccc1C21c2ccccc2C(=O)N1/N=C/c1ccc(OC)c(OC(=O)c2ccccc2)c1 (configuration not stated) | – | – | – | –
23 | 34.4% | 9% | 79.3% | – | CCOc1ccc2c(c1)Oc1cc(OC(=O)c3ccccc3[N+](=O)[O-])ccc1C21c2ccccc2C(=O)N1/N=C/c1ccccc1OC (configuration not stated) | – | – | – | –
24 | – | 6.5% | 4.2% | – | CCOc1ccc2c(c1)Oc1cc(OC(=O)c3ccccc3OC)ccc1C21c2ccccc2C(=O)N1/N=C/c1ccc(Cl)cc1 (configuration not stated) | – | – | – | –
25 | 9.2% | 7.9% | 75.3% | – | CCOc1ccc2c(c1)Oc1cc(OC(=O)c3ccccc3)ccc1C21c2ccccc2C(=O)N1/N=C/c1ccc(OC(=O)c2ccccc2)cc1 (configuration not stated) | – | – | – | –
26 | – | 7% | 9.4% | – | CCOc1ccc2c(c1)Oc1cc(OC(=O)c3ccccc3)ccc1C21c2ccccc2C(=O)N1/N=C/c1ccc(Cl)cc1 (configuration not stated) | – | – | – | –
27 | – | 10.8% | 12.9% | – | CCOc1ccc2c(c1)Oc1cc(OC(=O)c3ccccc3[N+](=O)[O-])ccc1C21c2ccccc2C(=O)N1/N=C/c1ccc(Cl)cc1 (configuration not stated) | – | – | – | –
28 | 2.5% | 25.3% | 99.9% | – | CCOc1ccc2c(c1)Oc1cc(OC(=O)c3ccccc3)ccc1C21c2ccccc2C(=O)N1/N=C/c1ccc(Cl)cc1Cl (configuration not stated) | – | – | – | –
29 | 1.7% | 4.8% | 86.6% | – | CCOc1ccc2c(c1)Oc1cc(OC(=O)c3ccccc3Cl)ccc1C21c2ccccc2C(=O)N1/N=C/c1ccc(OC)c(OC(=O)c2ccccc2Cl)c1 (configuration not stated) | – | – | – | –
30 | – | 11.1% | 0% | – | CCOc1ccc2c(c1)Oc1cc(OC(=O)c3ccccc3Cl)ccc1C21c2ccccc2C(=O)N1/N=C/c1ccccc1OC(=O)c1ccccc1Cl (configuration not stated) | – | – | – | –
31 | 9.8% | 5.4% | 44.6% | – | CCOc1ccc2c(c1)Oc1cc(OC(=O)c3ccccc3)ccc1C21c2ccccc2C(=O)N1/N=C/c1ccc(OC)cc1 (configuration not stated) | – | – | – | –
32 | – | 13.2% | 22.7% | – | CCOc1ccc2c(c1)Oc1cc(OC(=O)c3ccccc3[N+](=O)[O-])ccc1C21c2ccccc2C(=O)N1/N=C/c1ccc(OC(=O)c2ccccc2[N+](=O)[O-])cc1 (configuration not stated) | – | – | – | –
33 | – | 11.4% | 0% | – | CCOc1ccc2c(c1)Oc1cc(OC(=O)c3ccccc3OC)ccc1C21c2ccccc2C(=O)N1/N=C/c1ccc(OC(=O)c2ccccc2OC)cc1 (configuration not stated) | > 50 µM | > 50 µM | > 50 µM | 44.8 µM
34 | 30% | 7.8% | 55.2% | – | CCOc1ccc2c(c1)Oc1cc(OC(=O)c3ccccc3Cl)ccc1C21c2ccccc2C(=O)N1/N=C/c1ccccc1OC (configuration not stated) | > 50 µM | 6.3 µM | > 50 µM | > 50 µM
35 | 13.9% | 4.9% | 73.1% | – | CCOc1ccc2c(c1)Oc1cc(OC(=O)c3ccccc3OC)ccc1C21c2ccccc2C(=O)N1/N=C/c1ccc(OC)c(OC(=O)c2ccccc2OC)c1 (configuration not stated) | > 50 µM | > 50 µM | > 50 µM | 23.6 µM
36 | – | 65% | 0.8% | 3.6% | CCOc1ccc2c(c1)Oc1cc(O)ccc1C21c2ccccc2C(=O)N1/N=C/c1ccc(OC)cc1 (configuration not stated) | – | – | – | –
37 | – | – | – | – | COc1cccc2c1C(=O)c1c(O)c3c(c(O)c1C2=O)C[C@@](O)(C(=O)CO)C[C@@H]3O[C@H]1C[C@H](N)[C@H](O)[C@H](C)O1 [DOXORUBICIN HYDROCHLORIDE] | – | 1.59 µM | 0.74 µM | 1.5 µM
